Each block holds one compound with its values, some of them ahead of it. The source made the active and inactive calls.
What was measured:
Phospholipase D1 [1] = target: T1, Phospholipase D1 (Homo sapiens, UniProt Q13393); experiment: cellular phospholipase D1 inhibition IC50 – cell-based, dose response (AID 602151); format: functional;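 further: cellular PLD1 assay in Calu-1 cells stimulated with PMA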
Phospholipase D2 [2] = target: T2, Phospholipase D2 (Homo sapiens, UniProt O14939); experiment: cellular phospholipase D2 inhibition IC50 – cell-based, dose response (AID 602147); format: functional;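 further: cellular assay in HEK293 cells overexpressing GFP-tagged PLD2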
T2 sequence (O14939 whole entry): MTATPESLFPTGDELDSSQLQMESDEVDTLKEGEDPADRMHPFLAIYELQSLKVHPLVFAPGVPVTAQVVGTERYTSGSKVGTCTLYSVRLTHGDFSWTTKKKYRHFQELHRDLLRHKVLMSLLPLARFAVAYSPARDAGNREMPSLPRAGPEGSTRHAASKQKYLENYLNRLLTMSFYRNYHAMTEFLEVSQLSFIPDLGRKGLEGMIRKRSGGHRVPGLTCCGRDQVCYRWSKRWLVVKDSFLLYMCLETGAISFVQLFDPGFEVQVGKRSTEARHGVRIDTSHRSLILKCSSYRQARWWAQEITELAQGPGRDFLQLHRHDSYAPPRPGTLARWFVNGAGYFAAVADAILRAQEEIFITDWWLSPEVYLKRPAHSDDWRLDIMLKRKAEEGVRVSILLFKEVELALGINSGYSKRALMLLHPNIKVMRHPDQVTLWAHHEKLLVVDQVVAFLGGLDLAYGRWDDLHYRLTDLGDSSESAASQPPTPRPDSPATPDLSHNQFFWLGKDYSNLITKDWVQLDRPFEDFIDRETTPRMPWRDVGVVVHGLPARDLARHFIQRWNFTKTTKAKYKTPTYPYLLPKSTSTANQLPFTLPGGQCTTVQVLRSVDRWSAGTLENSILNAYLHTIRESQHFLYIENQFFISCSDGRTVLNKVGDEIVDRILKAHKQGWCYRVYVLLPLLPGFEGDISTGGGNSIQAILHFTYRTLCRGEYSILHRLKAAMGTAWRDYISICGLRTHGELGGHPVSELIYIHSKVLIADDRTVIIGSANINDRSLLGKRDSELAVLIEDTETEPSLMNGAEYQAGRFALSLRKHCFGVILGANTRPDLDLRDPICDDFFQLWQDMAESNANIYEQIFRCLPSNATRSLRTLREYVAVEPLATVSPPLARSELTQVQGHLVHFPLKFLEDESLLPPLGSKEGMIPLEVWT

Phospholipase D1 [3] = target: T1, Phospholipase D1; experiment: PLD1 purified enzyme concentration response. [Related pubchem assays (depositor defined):AID588854]; format: functional
Phospholipase D2 [4] = target: T2, Phospholipase D2; experiment: PLD2 purified enzyme concentration response. [Related pubchem assays (depositor defined):AID588854]; format: functional
[5] = target: Protein kinase C zeta type (Homo sapiens, UniProt Q05513); format: functional;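 further: measured as one member of a broad kinase profiling panel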
[6] = target: 3-phosphoinositide-dependent protein kinase 1 (Homo sapiens, UniProt O15530); format: functional;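 further: value comes from the Navigating the Kinome panel, PDPK1 member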
[7] = target: Serine/threonine-protein kinase pim-1 (Homo sapiens, UniProt P11309); format: functional
[8] = target: Cell division cycle 7-related protein kinase (Homo sapiens, UniProt O00311); format: functional;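 further: value obtained from a kinome-wide kinase panel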
[9] = target: Homeodomain-interacting protein kinase 2 (Homo sapiens, UniProt Q9H2X6); format: functional;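 further: measured within a kinome-wide kinase profiling panel, HIPK2 being one panel member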
[10] = target: Interleukin-1 receptor-associated kinase 4 (Homo sapiens, UniProt Q9NWZ3); format: functional
[11] = target: T3, Glycogen synthase kinase-3 beta (Homo sapiens, UniProt P49841); format: functional;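 on Ki: value comes from a broad kinome profiling panel, with GSK3B as the panel member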
T3 sequence (P49841 whole entry): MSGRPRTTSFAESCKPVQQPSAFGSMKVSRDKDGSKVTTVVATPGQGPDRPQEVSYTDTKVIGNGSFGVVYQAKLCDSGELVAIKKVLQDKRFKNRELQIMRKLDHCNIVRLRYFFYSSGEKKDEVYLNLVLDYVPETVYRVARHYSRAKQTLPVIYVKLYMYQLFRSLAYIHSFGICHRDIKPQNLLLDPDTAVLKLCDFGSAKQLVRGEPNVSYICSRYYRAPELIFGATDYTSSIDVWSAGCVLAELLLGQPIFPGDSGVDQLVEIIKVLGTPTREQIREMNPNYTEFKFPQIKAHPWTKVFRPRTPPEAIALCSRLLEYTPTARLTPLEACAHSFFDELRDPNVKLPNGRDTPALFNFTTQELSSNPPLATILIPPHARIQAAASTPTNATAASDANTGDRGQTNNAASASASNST

[12] = target: cAMP-dependent protein kinase catalytic subunit alpha (Homo sapiens, UniProt P17612); format: functional
[13] = target: Mitogen-activated protein kinase kinase kinase kinase 4 (Homo sapiens, UniProt O95819); format: functional
[14] = target: T4, Glycogen synthase kinase-3 alpha (Homo sapiens, UniProt P49840); experiment: Inhibition of Human GSK-3 alpha Activity Measured in Biochemical System Using Microfluidics - 2063-06_Inhibitor_Dose_DryPowder_Activity. [Related pubchem assays (depositor defined):AID2709]
T4 sequence (P49840 whole entry): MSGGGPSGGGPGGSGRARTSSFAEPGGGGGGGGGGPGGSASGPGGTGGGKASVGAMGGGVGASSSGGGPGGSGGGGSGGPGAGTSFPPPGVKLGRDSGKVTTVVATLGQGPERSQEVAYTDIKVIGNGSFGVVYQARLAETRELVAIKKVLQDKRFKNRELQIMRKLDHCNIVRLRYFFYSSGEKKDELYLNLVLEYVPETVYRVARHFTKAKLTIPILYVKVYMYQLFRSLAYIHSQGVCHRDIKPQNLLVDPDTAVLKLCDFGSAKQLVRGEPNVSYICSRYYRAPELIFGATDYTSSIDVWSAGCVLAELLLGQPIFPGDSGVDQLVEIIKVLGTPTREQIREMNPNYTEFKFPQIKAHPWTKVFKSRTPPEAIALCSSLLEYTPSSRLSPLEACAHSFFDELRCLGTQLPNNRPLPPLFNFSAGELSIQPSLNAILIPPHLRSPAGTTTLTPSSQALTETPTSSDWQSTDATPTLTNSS

[15] = target: T3, Glycogen synthase kinase-3 beta; experiment: Inhibition of Human GSK-3 beta Activity Measured in Biochemical System Using Microfluidics - 2063-05_Inhibitor_Dose_DryPowder_Activity. [Related pubchem assays (depositor defined):AID2709]
[16] = target: DNA dC->dU-editing enzyme APOBEC-3G (Homo sapiens, UniProt Q9HC16); experiment: inhibition of APOBEC3G ssDNA deamination – biochemical, fluorescence, single-stranded DNA substrate, SAR follow-up (AID 602136); format: functional; conditions: read-out: IC50_Mean
[17] = target: DNA dC->dU-editing enzyme APOBEC-3A (Homo sapiens, UniProt P31941); experiment: SAR analysis of small molecule inhibitors of APOBEC3A DNA Deaminase via a fluorescence-based single-stranded DNA deaminase assay.; format: functional; conditions: read-out: IC50_Mean
[18] = target: ALK tyrosine kinase receptor (Homo sapiens, UniProt Q9UM73); format: functional;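 further: ALK tested as one member of a kinase panel screen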
Sequence of ALK tyrosine kinase receptor (Q9UM73 whole entry): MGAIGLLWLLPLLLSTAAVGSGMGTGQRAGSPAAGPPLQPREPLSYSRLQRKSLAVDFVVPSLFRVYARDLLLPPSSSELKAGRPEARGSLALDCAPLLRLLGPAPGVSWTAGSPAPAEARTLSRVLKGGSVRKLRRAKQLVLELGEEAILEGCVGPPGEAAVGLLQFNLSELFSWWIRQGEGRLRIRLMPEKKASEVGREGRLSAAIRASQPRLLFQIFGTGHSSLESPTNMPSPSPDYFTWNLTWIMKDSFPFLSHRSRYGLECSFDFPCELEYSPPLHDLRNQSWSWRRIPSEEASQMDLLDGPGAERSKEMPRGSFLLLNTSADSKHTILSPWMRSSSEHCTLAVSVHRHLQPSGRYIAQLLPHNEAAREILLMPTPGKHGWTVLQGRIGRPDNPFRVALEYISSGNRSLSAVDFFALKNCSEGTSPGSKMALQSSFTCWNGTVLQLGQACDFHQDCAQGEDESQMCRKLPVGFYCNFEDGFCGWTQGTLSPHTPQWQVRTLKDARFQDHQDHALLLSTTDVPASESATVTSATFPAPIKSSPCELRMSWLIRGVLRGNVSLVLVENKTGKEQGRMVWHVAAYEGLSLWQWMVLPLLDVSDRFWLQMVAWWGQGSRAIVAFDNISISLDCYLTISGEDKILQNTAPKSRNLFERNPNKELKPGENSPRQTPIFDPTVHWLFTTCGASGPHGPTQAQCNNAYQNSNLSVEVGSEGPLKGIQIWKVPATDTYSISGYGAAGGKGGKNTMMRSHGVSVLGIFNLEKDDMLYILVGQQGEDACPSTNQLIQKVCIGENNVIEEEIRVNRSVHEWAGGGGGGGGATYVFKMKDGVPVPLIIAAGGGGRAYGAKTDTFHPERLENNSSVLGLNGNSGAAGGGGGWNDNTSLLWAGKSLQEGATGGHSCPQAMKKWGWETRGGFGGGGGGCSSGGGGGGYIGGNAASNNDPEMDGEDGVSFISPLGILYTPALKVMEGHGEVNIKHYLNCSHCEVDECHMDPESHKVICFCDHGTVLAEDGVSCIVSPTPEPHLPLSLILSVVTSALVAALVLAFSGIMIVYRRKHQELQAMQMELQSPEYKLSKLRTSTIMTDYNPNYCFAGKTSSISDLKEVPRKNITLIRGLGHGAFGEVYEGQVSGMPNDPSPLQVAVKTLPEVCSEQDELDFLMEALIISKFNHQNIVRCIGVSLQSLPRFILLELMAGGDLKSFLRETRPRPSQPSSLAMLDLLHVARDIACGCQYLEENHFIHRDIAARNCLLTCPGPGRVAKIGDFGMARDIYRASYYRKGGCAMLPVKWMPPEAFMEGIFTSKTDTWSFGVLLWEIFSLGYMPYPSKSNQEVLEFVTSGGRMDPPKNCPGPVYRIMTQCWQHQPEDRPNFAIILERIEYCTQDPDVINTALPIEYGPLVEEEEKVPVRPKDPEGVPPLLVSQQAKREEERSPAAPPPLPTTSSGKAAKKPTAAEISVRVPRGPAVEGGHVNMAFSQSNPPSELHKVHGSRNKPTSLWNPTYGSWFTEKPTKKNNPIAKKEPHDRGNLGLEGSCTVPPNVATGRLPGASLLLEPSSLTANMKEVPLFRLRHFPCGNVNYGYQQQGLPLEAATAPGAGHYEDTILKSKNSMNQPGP

Wee1-like protein kinase = Wee1-like protein kinase (Homo sapiens, UniProt P30291); experiment: Navigating the Kinome. Panel member name: WEE1; format: functional
[19] = target: T5, Beta-2 adrenergic receptor (Homo sapiens, UniProt P07550); experiment: ADRB2 activation measured by internalization – cell-based, FAP fluorogen, flow cytometry, cherry pick 1, dose response (AID 588763); format: functional
T5 sequence (P07550 whole entry): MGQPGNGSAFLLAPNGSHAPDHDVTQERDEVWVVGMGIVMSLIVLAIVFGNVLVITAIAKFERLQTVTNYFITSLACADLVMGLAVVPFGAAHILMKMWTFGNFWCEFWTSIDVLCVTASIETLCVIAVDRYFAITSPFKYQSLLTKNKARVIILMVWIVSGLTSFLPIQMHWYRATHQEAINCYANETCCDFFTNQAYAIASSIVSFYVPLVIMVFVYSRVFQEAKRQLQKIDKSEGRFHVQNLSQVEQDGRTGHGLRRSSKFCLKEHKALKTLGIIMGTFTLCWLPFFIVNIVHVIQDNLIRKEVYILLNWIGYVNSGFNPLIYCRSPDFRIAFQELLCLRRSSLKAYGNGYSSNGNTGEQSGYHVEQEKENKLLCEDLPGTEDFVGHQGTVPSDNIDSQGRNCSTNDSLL

[20] = target: T5, Beta-2 adrenergic receptor; experiment: Dose response for HTS for Beta-2AR agonists via FAP method from Powderset3.; format: functional
[21] = target: T6, Heat shock protein HSP 90-alpha (Homo sapiens, UniProt P07900); experiment: Luminescence-based dose response biochemical high throughput screening assay for inhibitors of the Heat Shock Protein 90 (HSP90). [Related pubchem assays: 1831 (Summary AID.), 1846 (Confirmation screen.), 1789 (Primary screen.)]
[22] = target: Beta-adrenergic receptor kinase 1 (Homo sapiens, UniProt P25098); experiment: aptamer displacement from bead-bound GRK2 – biochemical, cherry pick 1, bead flow cytometry, dose response (AID 504500)
Protein skinhead-1 = target: T7, Protein skinhead-1 (Caenorhabditis elegans, UniProt P34707); format: functional
T7 sequence (P34707 whole entry): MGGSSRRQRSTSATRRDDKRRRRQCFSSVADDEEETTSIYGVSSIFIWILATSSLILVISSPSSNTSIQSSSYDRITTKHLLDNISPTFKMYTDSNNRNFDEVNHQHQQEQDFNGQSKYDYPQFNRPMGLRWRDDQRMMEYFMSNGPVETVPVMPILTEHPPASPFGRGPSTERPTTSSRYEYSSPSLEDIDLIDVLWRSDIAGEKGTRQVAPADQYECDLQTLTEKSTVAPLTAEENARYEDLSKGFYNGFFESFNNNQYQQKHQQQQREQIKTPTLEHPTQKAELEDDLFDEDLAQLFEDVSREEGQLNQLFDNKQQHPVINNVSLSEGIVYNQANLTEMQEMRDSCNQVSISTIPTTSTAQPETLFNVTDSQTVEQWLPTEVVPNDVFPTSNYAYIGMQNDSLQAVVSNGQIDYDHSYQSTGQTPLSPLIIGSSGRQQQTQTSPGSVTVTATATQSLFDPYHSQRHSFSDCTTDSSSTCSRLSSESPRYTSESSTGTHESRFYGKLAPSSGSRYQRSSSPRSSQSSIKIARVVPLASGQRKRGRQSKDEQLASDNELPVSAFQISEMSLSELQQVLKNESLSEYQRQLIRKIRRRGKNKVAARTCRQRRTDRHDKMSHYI

[23] = target: Envelope glycoprotein gp160 (Human immunodeficiency virus 1, UniProt Q6QLK5); experiment: cell-free HIV fusion peptide-binding blockers – biochemical, uHTS, fluorescence dequenching, […] (AID 1986)
[24] = CCR5-tropic HIV-1 fusion blockers – cell-based, CCR5-tropic Env, dose response (AID 2279); format: functional
Cysteine protease ATG4B = Cysteine protease ATG4B (Homo sapiens, UniProt Q9Y4P1); format: functional;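 further: Fluorescence-based dose-response confirmation assay measuring inhibition of ATG4B activity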
Phospholipase A2 = Phospholipase A2 (Homo sapiens, UniProt P04054); format: functional;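 further: confirmatory dose-response counterscreen on phospholipase A2, testing hits that came from an ultra-high-throughput screen for ATG4B inhibitors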
[25] = target: T8, Carboxy-terminal domain RNA polymerase II polypeptide A small phosphatase 1 (Homo sapiens, UniProt Q9GZU7); experiment: CTDSP1 inhibitors, concentration-response, biochemical, absorbance readout, ultra-high-throughput screen actives (AID 540297); format: functional
T8 sequence (Q9GZU7 whole entry): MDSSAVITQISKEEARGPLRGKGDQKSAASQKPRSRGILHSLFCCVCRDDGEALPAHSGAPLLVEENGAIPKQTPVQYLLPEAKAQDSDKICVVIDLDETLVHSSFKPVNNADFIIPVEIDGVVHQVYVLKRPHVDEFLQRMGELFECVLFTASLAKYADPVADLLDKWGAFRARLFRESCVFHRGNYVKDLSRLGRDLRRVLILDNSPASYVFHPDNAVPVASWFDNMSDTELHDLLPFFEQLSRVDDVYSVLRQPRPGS

[26] = target: Voltage-gated inwardly rectifying potassium channel KCNH2 (Homo sapiens, UniProt Q12809); conditions: Potency;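 further: confirmatory quantitative high-throughput screen measuring inhibition of hERG channel activity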
[27] = target: Serine/threonine-protein kinase Chk2 (Homo sapiens, UniProt O96017); format: functional;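 further: CHEK2 entry within a kinome-wide screening panel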
[28] = target: Cyclin-dependent kinase 2 (Homo sapiens, UniProt P24941); format: functional;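 further: CDK2 measured as one member of a broad kinome profiling panel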
[29] = target: MAP kinase-activated protein kinase 3 (Homo sapiens, UniProt Q16644); format: functional;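 further: value comes from a kinome-wide profiling panel in which MAPKAPK3 is one of the panel members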
[30] = target: Casein kinase I isoform delta (Homo sapiens, UniProt P48730); format: functional;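 further: measured as one member (CSNK1D) of a kinome panel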
[31] = target: Cyclin-dependent kinase 5 (Homo sapiens, UniProt Q00535); format: functional;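 further: CDK5 measured as one member of a kinase profiling panel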
[32] = target: Cyclin-dependent kinase 1 (Homo sapiens, UniProt P06493); format: functional;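 further: Kinome-wide panel profiling, with the target listed as panel member CDC2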
[33] = target: Cyclin-dependent kinase 19 (Homo sapiens, UniProt Q9BWU1); experiment: Navigating the Kinome. Panel member name: CDC2L6; format: functional
[34] = target: C-C chemokine receptor type 6 (Homo sapiens, UniProt P51684); experiment: antagonism of CCR6 beta-arrestin recruitment – cell-based, luminescent beta-arrestin readout, dose response (AID 504728); format: functional
Beta-galactosidase = Beta-galactosidase (Escherichia coli, UniProt Q8VNN2); experiment: detection-enzyme interference by beta-gal modulators – biochemical, E. coli enzyme, set 3, artefact control for CCR6 antagonist project, dose response (AID 504712); format: functional
[35] = target: T6, Heat shock protein HSP 90-alpha; format: functional, organism-based
HSP90 = HSP90 (Plasmodium falciparum 3D7, UniProt Q8IL32); format: functional, organism-based
[36] = target: T4, Glycogen synthase kinase-3 alpha; experiment: Inhibition of Human GSK-3 alpha Activity Measured in Biochemical System Using Microfluidics - 2063-06_Inhibitor_Dose_DryPowder_Activity_Set2. [Related pubchem assays (depositor defined):AID2709]
[37] = target: T3, Glycogen synthase kinase-3 beta; experiment: Inhibition of Human GSK-3 beta Activity Measured in Biochemical System Using Microfluidics - 2063-05_Inhibitor_Dose_DryPowder_Activity_Set2. [Related pubchem assays (depositor defined):AID2709]
[38] = target: Cyclin-dependent kinase 5/CDK5 activator 1 (Homo sapiens, UniProt Q00535); experiment: human CDK5 activity blockade – biochemical, microfluidic mobility shift, dry powder, selectivity assay for GSK-3 alpha inhibitor project, dose response (AID 588430)

T1 sequence (Q13393 whole entry): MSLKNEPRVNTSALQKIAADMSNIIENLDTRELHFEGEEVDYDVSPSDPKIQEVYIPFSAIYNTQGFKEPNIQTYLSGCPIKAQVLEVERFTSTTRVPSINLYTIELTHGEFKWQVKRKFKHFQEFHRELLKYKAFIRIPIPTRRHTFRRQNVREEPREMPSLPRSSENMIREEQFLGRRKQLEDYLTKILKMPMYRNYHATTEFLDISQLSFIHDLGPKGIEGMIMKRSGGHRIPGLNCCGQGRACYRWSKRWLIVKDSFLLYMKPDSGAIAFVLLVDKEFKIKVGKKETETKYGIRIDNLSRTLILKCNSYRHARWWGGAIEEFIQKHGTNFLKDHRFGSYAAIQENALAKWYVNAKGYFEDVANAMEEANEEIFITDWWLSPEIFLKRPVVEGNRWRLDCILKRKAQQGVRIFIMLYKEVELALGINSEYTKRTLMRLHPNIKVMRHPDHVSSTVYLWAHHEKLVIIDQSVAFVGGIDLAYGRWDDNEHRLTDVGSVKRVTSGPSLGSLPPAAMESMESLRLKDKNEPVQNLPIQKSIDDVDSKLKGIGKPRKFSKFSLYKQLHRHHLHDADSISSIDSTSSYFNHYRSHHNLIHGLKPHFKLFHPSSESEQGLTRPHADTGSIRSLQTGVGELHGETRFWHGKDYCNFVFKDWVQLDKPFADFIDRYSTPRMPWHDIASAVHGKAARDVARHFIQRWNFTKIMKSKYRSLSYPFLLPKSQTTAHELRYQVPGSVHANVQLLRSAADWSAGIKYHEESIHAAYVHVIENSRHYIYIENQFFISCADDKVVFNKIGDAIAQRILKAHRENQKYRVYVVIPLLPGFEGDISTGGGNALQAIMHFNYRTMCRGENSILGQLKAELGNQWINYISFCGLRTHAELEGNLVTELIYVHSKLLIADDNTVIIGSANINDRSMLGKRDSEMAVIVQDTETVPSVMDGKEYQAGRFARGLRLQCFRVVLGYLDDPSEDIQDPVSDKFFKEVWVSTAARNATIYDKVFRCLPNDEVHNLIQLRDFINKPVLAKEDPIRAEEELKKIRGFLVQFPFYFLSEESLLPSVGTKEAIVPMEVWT

- Ki [7]: 501 nM (active)
- Ki [8]: 0.794 nM (active)
- Ki [9]: 25.1 nM (active)
- Ki [10]: 5.01 µM (active)
- Ki [11]: 100 nM (active)
- Ki [12]: 251 nM (active)
- Ki [13]: 3.16 nM (active)
SMILES: OCCCCNc1cc(-c2c[nH]c3ncccc23)cc(Cl)n1

- Ki [18]: 39.8 nM (active)
- Ki (Wee1-like protein kinase): 15.8 nM (active)
SMILES: CCN1CCN(c2ccc(Nc3ncc(C)c(Nc4ccc5[nH]ncc5c4)n3)cc2)CC1

- EC50 [19]: 2.18 µM (active)
- EC50 [20]: 1.51 µM (active)
SMILES: Cc1ccc(NC(=O)C(c2ccc(Cl)cc2)N2CCOCC2)cc1 (stereo not given)

- Ki [27]: 3.98 µM (active)
- Ki [28]: 7.94 µM (active)
- Ki [29]: 2 µM (active)
- Ki [30]: 3.98 µM (active)
- Ki [31]: 10 µM (active)
- Ki [32]: 7.94 µM (active)
SMILES: Cc1c(NC2CCC(N)CC2)nc2ccnn2c1Nc1ccc(F)c(Cl)c1 (stereo not given)

- Ki [18]: 1000 nM (active)
- Ki [33]: 5.01 µM (active)
SMILES: COc1ccccc1Nc1nc(Nc2cnn(C)c2)ncc1Br

- IC50 [34]: > 66.6 µM (inactive)
- IC50 (Beta-galactosidase): > 66.6 µM (inactive)
- AC50 [35]: 6.15 µM (active)
- AC50 (HSP90): 8.36 µM (active)
SMILES: Oc1ccc(Cl)c2cccnc12 [CLOXYQUIN]

- AC50 [36]: 422 nM (active)
- AC50 [37]: 325 nM (active)
- AC50 [38]: 9.28 µM (active)
SMILES: Nc1nonc1-n1nnc(C(=O)N/N=C/c2ccccc2F)c1-c1cccs1

Further lines, the compound ahead of its results:

SMILES: C[C@@H](CN1CCC(n2c(=O)[nH]c3ccccc32)CC1)NC(=O)COc1ccccc1
- IC50 (Phospholipase D1 [1]): 2 nM (active)
- IC50 (Phospholipase D2 [2]): 3.8 µM (active)
- IC50 (Phospholipase D1 [3]): 57 nM (active)
- IC50 (Phospholipase D2 [4]): 5.8 µM (active)

SMILES: O=C(NCc1ccc(Br)cc1)c1cnn2c(-c3ccccc3)ccnc12
- Ki [5]: 2.51 µM (active)
- Ki [6]: 2.51 µM (active)

SMILES: COC(=O)c1ccc(CSc2nnc(-c3ccncc3)o2)cc1
- AC50 [14]: 1.67 µM (active)
- AC50 [15]: 395 nM (active)

SMILES: c1ccc2c(c1)OCC(c1nnc3c4c5c(sc4ncn13)CCCC5)O2 (stereo not given)
- IC50 [16]: > 99 µM (inactive)
- IC50 [17]: > 99 µM (inactive)

SMILES: Cc1cc2ccccc2n1CCNC(=O)c1cccs1
- IC50 [21]: 4.57 µM (active)
- EC50 [22]: 3.5 µM (active)
- IC50 (Protein skinhead-1): > 100 µM (inactive)

SMILES: CCOc1cc(/C=C2\SC(=O)N(CC(=O)Nc3ccccc3F)C2=O)cc([N+](=O)[O-])c1O
- IC50 [23]: 26.9 µM (active)
- IC50 [24]: 43.6 µM (active)
- IC50 (Cysteine protease ATG4B): 9.16 µM (active)
- IC50 (Phospholipase A2): 7.23 µM (active)
- IC50 [25]: 9.89 µM (active)

SMILES: CC(=O)O[C@]1(C(C)=O)CC[C@H]2[C@@H]3C=C(Cl)C4=CC(=O)[C@@H]5C[C@H]5[C@]4(C)[C@H]3CC[C@@]21C
- AC50 [26]: 35.5 µM (inconclusive)

Reference: ChEMBL document CHEMBL1201862, “PubChem BioAssay data set” (2004)
